Data reported in article PMC8270334, “Design, Sustainable Synthesis and Biological Evaluation of a Novel Dual α2A/5-HT7 Receptor Antagonist with Antidepressant-Like Properties” (Molecules, 2021).

Key:
human D2L receptor = target: T1, human D2L receptor (Homo sapiens, UniProt P14416); assay: radioligand binding, [3H]-raclopride displacement at D2LR in HEK293 cells; conditions: HEK-293 cells, ± SEM; read-out: Ki [nM] D2
T1 construct: expressed in transfected cells; host or cells: HEK293
Experimental: (§1) All experiments were performed using HEK293 cells stably expressing human 5-HT1A, 5-HT6, 5-HT7b, and D2L receptors or CHO-K1 cells with a plasmid containing the human 5-HT2A receptor coding sequence (PerkinElmer, Waltham, MA, USA), according to previously reported procedures. Cells were cultured in 150 cm^2 flasks and, after reaching a 90% confluence, were washed with PBS and the centrifugated (200 g) in PBS containing 0.1 mM EDTA and 1 mM dithiothreitol. Cell pellets were subsequently homogenized (in Ultra Turrax tissue homogenizer) and centrifugated twice (35,000× g for 15 min at 4 °C), with 15 min incubation at 37 °C between the centrifugations. All assays were incubated in dedicated buffers and in a total volume of 200 µL in 96-well microtitre plates for 1 h at 37 °C, except for 5-HT1AR and 5-HT2AR that was incubated for 1 h at room temperature. The process of equilibration is terminated by rapid filtration through Unifilter-96 (PerkinElmer) plates with a 96-well cell harvester and radioactivity retained on the filters was quantified on a Microbeta plate reader (PerkinElmer, USA). For displacement studies, the following assay samples containing the proper radioligand were used: 2.5 nM [^3H]-8-OH-DPAT (PerkinElmer, #NET929001MC) for 5-HT1AR; 1 nM [^3H]-ketanserin (PerkinElmer, #NET791250UC) for 5-HT2AR; 2 nM [^3H]-LSD (PerkinElmer, #NET638250UC) for 5-HT6R; and 0.8 nM [^3H]-5-CT (PerkinElmer, #NET1188U100UC) for 5-HT7R or 2.5 nM [^3H]-raclopride (PerkinElmer, #NET975001MC) for D2LR. Non-specific binding was determined using 10 μM 5-HT for 5-HT1AR and 5-HT7R, 20 μM mianserin for 5-HT2AR, 10 μM methiothepine for 5-HT6R, and 10 μM haloperidol for D2LR. […] Results were expressed as means of at least three separate experiments.

human 5-HT6 receptor = target: T2, human 5-HT6 receptor (Homo sapiens, UniProt P50406); assay: radioligand binding, [3H]-LSD displacement at 5-HT6R in HEK293 cells; conditions: HEK-293 cells, ± SEM
T2 construct: expressed in transfected cells; host or cells: HEK293
T2 sequence (P50406 whole entry): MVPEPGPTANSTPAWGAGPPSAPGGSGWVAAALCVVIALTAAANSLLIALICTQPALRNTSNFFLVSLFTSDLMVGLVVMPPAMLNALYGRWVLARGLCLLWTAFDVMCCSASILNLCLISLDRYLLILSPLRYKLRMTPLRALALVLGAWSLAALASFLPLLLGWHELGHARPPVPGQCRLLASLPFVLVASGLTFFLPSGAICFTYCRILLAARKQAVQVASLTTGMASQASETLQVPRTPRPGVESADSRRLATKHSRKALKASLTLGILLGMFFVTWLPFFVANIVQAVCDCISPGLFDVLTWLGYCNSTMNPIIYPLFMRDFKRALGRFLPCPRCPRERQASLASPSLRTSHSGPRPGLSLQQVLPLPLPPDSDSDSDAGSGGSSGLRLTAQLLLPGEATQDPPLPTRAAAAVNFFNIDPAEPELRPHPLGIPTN
Experimental: as §1

α2A-adrenergic receptor = target: T3, α2A-adrenergic receptor (Homo sapiens, UniProt P08913); assay: intrinsic activity (antagonist) assay, Tango ADRA2A-bla U2OS DA cells, FRET; assay type: cell-based; conditions: for Kb: antagonist, ADRA2A-bla U2OS DA cells, ± SEM, two independent experiments; for functional selectivity for α2A-AR over α2B-AR subtype: from Kb values α2A vs α2B
T3 construct: host or cells: U2OS (Tango ADRA2A-bla U2OS DA)
T3 sequence (P08913 1-465): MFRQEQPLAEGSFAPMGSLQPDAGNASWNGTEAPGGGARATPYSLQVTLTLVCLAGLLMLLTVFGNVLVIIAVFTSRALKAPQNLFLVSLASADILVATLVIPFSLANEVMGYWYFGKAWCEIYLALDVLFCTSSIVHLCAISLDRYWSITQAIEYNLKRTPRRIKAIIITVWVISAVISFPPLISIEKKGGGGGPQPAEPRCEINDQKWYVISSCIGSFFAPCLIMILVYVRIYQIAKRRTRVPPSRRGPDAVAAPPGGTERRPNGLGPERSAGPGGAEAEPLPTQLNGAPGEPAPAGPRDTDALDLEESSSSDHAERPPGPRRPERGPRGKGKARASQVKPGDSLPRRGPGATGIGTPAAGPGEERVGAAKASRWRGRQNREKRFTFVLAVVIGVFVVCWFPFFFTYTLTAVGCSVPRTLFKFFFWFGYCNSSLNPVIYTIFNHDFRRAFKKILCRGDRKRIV
Experimental: Intrinsic activity assays for α2A-adrenergic receptor were performed according to the instructions of the manufacturer of the assay kit containing the ready to use cells with stable expression of the α2A-adrenoceptor (Invitrogen, Life Technologies, Waltham, MA, USA). Tango™ ADRA2A-bla U2OS DA cells (10,000 cells/well) were plated in a 384-well format and incubated for 20 h. […] Cells were then loaded with LiveBLAzer™-FRET B/G substrate for 2 h.

T1 sequence (P14416 whole entry): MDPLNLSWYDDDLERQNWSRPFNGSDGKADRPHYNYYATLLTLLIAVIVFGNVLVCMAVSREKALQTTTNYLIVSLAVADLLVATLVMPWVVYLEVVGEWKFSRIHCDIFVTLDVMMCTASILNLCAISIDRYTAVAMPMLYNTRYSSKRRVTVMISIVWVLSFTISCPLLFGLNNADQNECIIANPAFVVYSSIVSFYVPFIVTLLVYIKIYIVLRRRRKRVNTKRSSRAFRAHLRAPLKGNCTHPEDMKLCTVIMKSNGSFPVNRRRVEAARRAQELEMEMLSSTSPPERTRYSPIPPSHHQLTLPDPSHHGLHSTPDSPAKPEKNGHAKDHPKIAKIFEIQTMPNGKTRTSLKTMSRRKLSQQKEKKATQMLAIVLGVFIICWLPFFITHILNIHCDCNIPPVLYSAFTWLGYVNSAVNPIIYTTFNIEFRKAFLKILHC

| SMILES | Ki (human D2L receptor) [nM] | Ki (human 5-HT6 receptor) [nM] | Kb (α2A-adrenergic receptor) [nM] | functional selectivity for α2A-AR over α2B-AR subtype (α2A-adrenergic receptor) |
| --- | --- | --- | --- | --- |
| CC1(C)Cc2cccc(OCCN3CCC(NS(=O)(=O)c4cncc5ccccc45)CC3)c2O1 [Compound 13, 4-Isoquinoline-N-{1-[2-(2,2-dimethyl-2,3-dihydrobenzofuran-7-yloxy)ethyl]piperidin-4-yl}sulfonamide] | 326 ± 25 | 1120 ± 114 | 31 ± 8 | did not show any preference |
| CC1(C)Cc2cccc(OCCN3CCC(NS(=O)(=O)c4ccc(F)cc4)CC3)c2O1 [Compound 6, 4-Fluoro-N-{1-[2-(2,2-dimethyl-2,3-dihydrobenzofuran-7-yloxy)ethyl]piperidin-4-yl} benzenesulfonamide] | 327 ± 29 | 839 ± 70 | 12 ± 4 | up to seven |
| CC1(C)Cc2cccc(OCCN3CCC(NS(=O)(=O)c4cc(Cl)ccc4F)CC3)c2O1 [Compound 8, 5-Chloro-2-fluoro-N-{1-[2-(2,2-dimethyl-2,3-dihydrobenzofuran-7-yloxy)ethyl]piperidin-4-yl}benzenesulfonamide] | 388 ± 37 | 873 ± 91 | 40 ± 11 | four |
